Measurements published in ChEMBL document CHEMBL5291721, “A preclinical secondary pharmacology resource illuminates target-adverse drug reaction associations of marketed drugs” (Nat Commun, 2023).

What was measured:
[1] = molecular target: T1, Oxysterols receptor LXR-beta (Homo sapiens, UniProt P55055); type: functional
T1 sequence (P55055 whole entry): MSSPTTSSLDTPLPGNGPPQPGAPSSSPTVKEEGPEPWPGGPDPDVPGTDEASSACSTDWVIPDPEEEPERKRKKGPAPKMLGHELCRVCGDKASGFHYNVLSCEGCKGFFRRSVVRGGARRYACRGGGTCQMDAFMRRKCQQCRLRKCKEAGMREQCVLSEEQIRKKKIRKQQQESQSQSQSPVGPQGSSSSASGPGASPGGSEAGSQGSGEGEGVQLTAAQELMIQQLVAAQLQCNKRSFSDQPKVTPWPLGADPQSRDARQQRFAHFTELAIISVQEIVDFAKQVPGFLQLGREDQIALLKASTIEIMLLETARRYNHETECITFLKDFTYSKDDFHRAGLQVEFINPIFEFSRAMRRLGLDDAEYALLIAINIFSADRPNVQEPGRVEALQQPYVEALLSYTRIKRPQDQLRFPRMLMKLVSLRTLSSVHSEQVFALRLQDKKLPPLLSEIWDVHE

[2] = molecular target: T2, Oxysterols receptor LXR-alpha (Homo sapiens, UniProt Q13133); type: functional
T2 sequence (Q13133 whole entry): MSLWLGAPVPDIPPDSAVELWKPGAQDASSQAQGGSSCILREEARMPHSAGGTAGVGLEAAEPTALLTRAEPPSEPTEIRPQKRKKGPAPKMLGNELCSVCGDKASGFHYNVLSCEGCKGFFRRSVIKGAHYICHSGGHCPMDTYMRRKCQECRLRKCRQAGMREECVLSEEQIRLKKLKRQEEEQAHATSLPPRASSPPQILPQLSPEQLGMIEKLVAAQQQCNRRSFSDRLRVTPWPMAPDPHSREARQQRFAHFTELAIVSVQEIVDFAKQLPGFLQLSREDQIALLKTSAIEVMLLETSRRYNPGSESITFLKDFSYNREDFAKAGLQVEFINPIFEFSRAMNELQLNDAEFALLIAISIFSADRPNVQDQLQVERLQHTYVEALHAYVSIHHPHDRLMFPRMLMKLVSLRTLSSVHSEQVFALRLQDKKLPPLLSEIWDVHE

[3] = molecular target: T1, Oxysterols receptor LXR-beta; type: functional; remark: listed apart in the source
Bile acid receptor [4] = molecular target: T3, Bile acid receptor (Homo sapiens, UniProt Q96RI1); type: functional
T3 sequence (Q96RI1 whole entry): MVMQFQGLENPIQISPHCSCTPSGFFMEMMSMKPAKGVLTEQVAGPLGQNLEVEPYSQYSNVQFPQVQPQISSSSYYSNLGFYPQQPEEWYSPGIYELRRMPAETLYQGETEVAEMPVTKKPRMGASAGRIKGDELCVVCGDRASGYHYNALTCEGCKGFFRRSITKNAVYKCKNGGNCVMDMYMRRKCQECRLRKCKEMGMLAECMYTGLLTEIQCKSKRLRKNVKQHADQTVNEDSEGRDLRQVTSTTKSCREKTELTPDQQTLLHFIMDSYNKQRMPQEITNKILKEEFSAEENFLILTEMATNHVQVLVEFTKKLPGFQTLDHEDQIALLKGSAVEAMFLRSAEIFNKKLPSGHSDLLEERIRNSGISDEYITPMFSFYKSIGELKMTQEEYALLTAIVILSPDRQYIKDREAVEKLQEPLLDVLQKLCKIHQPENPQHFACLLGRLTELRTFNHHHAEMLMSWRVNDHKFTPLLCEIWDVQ

Bile acid receptor [5] = molecular target: T3, Bile acid receptor; type: functional; remark: listed apart in the source
Bile acid receptor [6] = molecular target: T3, Bile acid receptor; type: functional; remark: listed apart in the source
[7] = molecular target: 5-hydroxytryptamine receptor 2A (Homo sapiens, UniProt P28223)
[8] = molecular target: T4, Muscarinic acetylcholine receptor M2 (Homo sapiens, UniProt P08172)
T4 sequence (P08172 whole entry): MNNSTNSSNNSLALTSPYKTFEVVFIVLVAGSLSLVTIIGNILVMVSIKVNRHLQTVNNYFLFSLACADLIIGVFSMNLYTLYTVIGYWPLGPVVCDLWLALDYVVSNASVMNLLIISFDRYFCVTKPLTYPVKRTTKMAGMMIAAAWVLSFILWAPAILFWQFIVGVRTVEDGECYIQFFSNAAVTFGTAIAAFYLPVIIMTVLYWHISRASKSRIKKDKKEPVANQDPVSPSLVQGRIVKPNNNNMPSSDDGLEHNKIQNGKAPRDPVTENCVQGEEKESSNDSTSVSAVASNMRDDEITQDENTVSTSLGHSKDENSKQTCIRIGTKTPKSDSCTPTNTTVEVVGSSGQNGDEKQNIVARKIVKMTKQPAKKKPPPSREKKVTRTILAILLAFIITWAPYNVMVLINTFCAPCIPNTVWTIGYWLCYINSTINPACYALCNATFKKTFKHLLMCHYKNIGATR

[9] = molecular target: T5, Alpha-2A adrenergic receptor (Homo sapiens, UniProt P08913)
T5 sequence (P08913 whole entry): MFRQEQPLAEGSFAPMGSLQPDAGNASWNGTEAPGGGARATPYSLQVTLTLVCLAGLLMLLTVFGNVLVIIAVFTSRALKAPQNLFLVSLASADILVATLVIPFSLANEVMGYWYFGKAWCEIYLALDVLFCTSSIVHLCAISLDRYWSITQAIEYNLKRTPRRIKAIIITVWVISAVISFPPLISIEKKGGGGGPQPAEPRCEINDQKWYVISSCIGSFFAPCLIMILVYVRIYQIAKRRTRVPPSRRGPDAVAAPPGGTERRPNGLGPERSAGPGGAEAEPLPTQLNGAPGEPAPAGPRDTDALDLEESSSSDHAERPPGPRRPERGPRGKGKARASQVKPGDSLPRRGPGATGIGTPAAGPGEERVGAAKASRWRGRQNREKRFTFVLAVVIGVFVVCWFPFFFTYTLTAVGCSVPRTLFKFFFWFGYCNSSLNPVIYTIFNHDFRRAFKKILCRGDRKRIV

D(1A) dopamine receptor = D(1A) dopamine receptor (Homo sapiens, UniProt P21728)
Also: assay procedure not described here.

Sequence of 5-hydroxytryptamine receptor 2A (P28223 whole entry): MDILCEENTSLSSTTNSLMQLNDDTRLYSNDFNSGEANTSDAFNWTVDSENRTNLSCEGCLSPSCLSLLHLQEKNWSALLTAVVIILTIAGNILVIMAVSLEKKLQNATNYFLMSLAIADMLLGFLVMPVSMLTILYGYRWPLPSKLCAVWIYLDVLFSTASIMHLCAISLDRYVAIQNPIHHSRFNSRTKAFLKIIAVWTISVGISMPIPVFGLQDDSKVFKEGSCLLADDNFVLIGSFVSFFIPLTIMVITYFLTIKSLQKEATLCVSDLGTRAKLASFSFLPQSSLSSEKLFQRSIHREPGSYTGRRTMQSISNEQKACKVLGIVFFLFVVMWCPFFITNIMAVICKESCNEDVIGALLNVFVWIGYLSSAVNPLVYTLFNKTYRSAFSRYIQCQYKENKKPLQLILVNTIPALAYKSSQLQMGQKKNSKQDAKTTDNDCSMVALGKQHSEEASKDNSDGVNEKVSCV
Sequence of D(1A) dopamine receptor (P21728 whole entry): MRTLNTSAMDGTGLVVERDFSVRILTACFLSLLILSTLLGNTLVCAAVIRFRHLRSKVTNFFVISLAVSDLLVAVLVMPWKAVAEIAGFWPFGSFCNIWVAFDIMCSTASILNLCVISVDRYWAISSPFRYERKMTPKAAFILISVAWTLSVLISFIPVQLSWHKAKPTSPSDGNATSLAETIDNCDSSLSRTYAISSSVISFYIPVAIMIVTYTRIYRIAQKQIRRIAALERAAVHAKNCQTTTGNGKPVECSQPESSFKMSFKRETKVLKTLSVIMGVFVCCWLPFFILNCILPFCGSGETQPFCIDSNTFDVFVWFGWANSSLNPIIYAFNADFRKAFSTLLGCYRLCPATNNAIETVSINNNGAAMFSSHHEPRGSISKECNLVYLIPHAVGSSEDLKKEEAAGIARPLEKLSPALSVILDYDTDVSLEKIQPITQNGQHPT

With `CCN(CC)CCNC(=O)c1c(C)[nH]c(/C=C2\C(=O)Nc3ccc(F)cc32)c1C` [SUNITINIB] the AC50 [1] was > 30 µM and the AC50 [2] was > 10 µM.

In the case of `CC(C(=O)O)c1ccc2c(c1)[nH]c1ccc(Cl)cc12` (stereo not drawn) [CARPROFEN], the AC50 [3] is reported as > 30 µM, the AC50 [1] is reported as > 30 µM and the AC50 [2] is reported as > 30 µM. For the same compound, the AC50 (Bile acid receptor [4]) was > 30 µM, the AC50 (Bile acid receptor [5]) was > 30 µM and the AC50 (Bile acid receptor [6]) was > 30 µM.

In the case of `CN(C)CCc1c[nH]c2ccc(Cn3cncn3)cc12` [RIZATRIPTAN], the AC50 [7] is reported as > 10 µM.

`COc1cc2nccc(Oc3ccc(NC(=O)C4(C(=O)Nc5ccc(F)cc5)CC4)cc3)c2cc1OC` [CABOZANTINIB] was tested, and the AC50 [8] was > 30 µM, the AC50 [9] was > 30 µM and the AC50 (D(1A) dopamine receptor) was > 30 µM.

Work on `COc1cc2nc(N3CCN(C(=O)C4CCCO4)CC3)nc(N)c2cc1OC` (stereo not drawn) [TERAZOSIN] yielded an AC50 [9] of 29 µM.
